Measured values as given in publication PMC9230136 (Pharmaceutics, 2022).
Read-outs that look alike come from different tables or passages of the source.

Experiments:
[1] = test system: A549, MDA-MB-231, HeLa, HT-29 and Jurkat cancer cell lines; test: Antiproliferative activity over the panel of cancer cell lines; type: cell-based, human; conditions: for IC50: Homo sapiens
Method: (§1) Colon adenocarcinoma (HT-29) and T-cell leukemia (Jurkat) cells were grown in RPMI-1640 medium (Gibco, Milano, Italy). Promyelocytic leukemia cells (HL-60), non-small cell lung carcinoma (A549), cervix carcinoma (HeLa) and breast adenocarcinoma (MDA-MB-231) cells were grown in DMEM medium (Gibco, Milano, Italy). Both media were supplemented with 115 units/mL of penicillin G (Gibco, Milano, Italy), 115 μg/mL of streptomycin (Invitrogen, Milano, Italy) and 10% fetal bovine serum (Invitrogen, Milano, Italy). All the cell lines used were purchased from the American Type Culture Collection (ATCC, Manassas, VA, USA). Stock solutions (10 mM) of the compounds were obtained by dissolving them in DMSO.
(§2) The cells were seeded in 96-well plates at the appropriate density for each cell line. After 24 h, the cells were treated by performing serial 5-fold dilutions of the tested compounds starting from a concentration of 10 μM. All experimental conditions were tested in triplicate for statistical analysis. The plates were incubated for 72 h at 37 °C in a humidified 5% CO2 atmosphere. At the end of the incubation period, 10 μL of 100 μg/mL resazurin solution was added to each well; then, the plate was re-incubated for 3–4 h. The fluorescence of the wells in each plate was monitored using a Spark 10 M spectrophotometer (Tecan Group Ltd., Mannedorf, Switzerland) with a 535 nm excitation wavelength and a 600 nm emission wavelength.

MDA-MB-231 = test: Antiproliferative assay (resazurin, 72 h); type: cell-based, human; conditions: for IC50: Homo sapiens, MDA-MB-231
Method: as §1, §2

A549 = test: Antiproliferative assay (resazurin, 72 h); type: cell-based, human; conditions: Homo sapiens
Method: as §1, §2

HeLa = test: Antiproliferative assay (resazurin, 72 h); type: cell-based, human; conditions: Homo sapiens, HeLa
Method: as §1, §2

Jurkat = test: Antiproliferative assay (resazurin, 72 h); type: cell-based, human; conditions: for IC50: Homo sapiens, Jurkat, mean ± SE, 72 h
Method: as §1, §2

HT-29 = test: Antiproliferative assay (resazurin, 72 h); type: cell-based, human; conditions: Homo sapiens, HT-29, mean ± SE, 72 h
Method: as §1, §2

[2] = four of the five cell lines, read-out: IC50 values against four of the five cell lines
[3] = read-out: IC50 values (2-para-substituted phenyl derivatives)

SMILES	melting point [°C]	IC50 (MDA-MB-231; Table 1, mean ± SE, 72 h) [nM]	IC50 (A549; A549, Table 1, mean ± SE) [nM]	IC50 (HeLa; Table 1, mean ± SE) [nM]	IC50 (Jurkat; Table 1) [nM]	IC50 (HT-29; Table 1) [nM]	IC50 (MDA-MB-231; Table 2, mean ± SE, 72 h) [nM]	IC50 (A549; A549, Table 2, mean ± SE) [nM]	IC50 (HeLa; Table 2, mean ± SE) [nM]	IC50 (Jurkat; Table 2) [nM]	IC50 (HT-29; Table 2) [nM]	further results
COc1cc(Nc2cc(C)nc3nc(NCc4ccc(C(F)(F)F)cc4)nn23)cc(OC)c1OC [Compound 7w, 5-Methyl-N^2-(4-(trifluoromethyl)benzyl)-N^7-(3,4,5-trimethoxyphenyl)-[1,2,4]triazolo [1,5-a]pyrimidine-2,7-diamine]	174 to 176	560 ± 30	1280 ± 130	520 ± 20	960 ± 60	590 ± 260						IC50 [1, 2]: < 1000 nM
COc1ccc(CNc2nc3nc(C)cc(Nc4cc(OC)c(OC)c(OC)c4)n3n2)cc1 [Compound 7s, N^2-(4-Methoxybenzyl)-5-methyl-N^7-(3,4,5-trimethoxyphenyl)-[1,2,4]triazolo [1,5-a]pyrimidine-2,7-diamine]	182 to 184	1270 ± 120	810 ± 80	220 ± 30	900 ± 90	490 ± 60						IC50 ([1]; MDA-MB-231, against four of the five cell lines (not MDA-MB-231), read-out: IC50 values, range): 217 to 900 nM; IC50 [1, 2]: < 1000 nM; fold reduction in antiproliferative activity vs 7p ([1]; all five lines): 2–5 fold; IC50 (MDA-MB-231): 1300 nM
Cc1cc(Nc2ccc(F)cc2)n2nc(NCc3ccc4c(c3)OCO4)nc2n1 [Compound 8g, N^2-(Benzo[d][1,3]dioxol-5-ylmethyl)-N^7-(4-fluorophenyl)-5-methyl-[1,2,4]triazolo [1,5-a]pyrimidine-2,7-diamine]	168 to 170						600 ± 210	650 ± 280	160 ± 70	200 ± 50	260 ± 100	fold reduction in potency (vs 7y) ([1]; MDA-MB-231 and HT-29 cells): 2–3 fold; fold increase in activity relative to 7ad (Jurkat; Jurkat cells): 3-4 fold
COc1cc(Nc2cc(C)nc3nc(-c4ccc(F)cc4)nn23)cc(OC)c1OC [Compound 7a, 2-(4-Fluorophenyl)-5-methyl-N-(3,4,5-trimethoxyphenyl)-[1,2,4]triazolo [1,5-a]pyrimidin-7-amine]	253	2250 ± 190	2710 ± 250	3760 ± 190	3570 ± 450	> 10000						IC50 [1, 3]: < 2000 nM
COc1cc(Nc2cc(C)nc3nc(-c4ccc(C)cc4)nn23)cc(OC)c1OC [Compound 7c, 5-Methyl-2-(p-tolyl)-N-(3,4,5-trimethoxyphenyl)-[1,2,4]triazolo [1,5-a]pyrimidin-7-amine]	248	2600 ± 270	> 10000	2080 ± 190	4230 ± 1150	> 10000						IC50 [1, 3]: < 2000 nM
COc1cc(Nc2cc(C)nc3nc(NCc4cccc(Cl)c4)nn23)cc(OC)c1OC [Compound 7o, N^2-(3-Chlorobenzyl)-5-methyl-N^7-(3,4,5-trimethoxyphenyl)-[1,2,4]triazolo [1,5-a]pyrimidine-2,7-diamine]	136 to 138	60 ± 7	930 ± 110	740 ± 80	4720 ± 360	790 ± 90						IC50 [1, 2]: < 1000 nM; fold reduction in activity vs 7n ([1]; four of the five cancer cell lines): 9-24 fold; fold increase in potency vs 7n (MDA-MB-231; MDA-MB-231 cells): 3 fold
Cc1ccc(CNc2nc3nc(C)cc(Nc4ccc(F)c(Cl)c4)n3n2)cc1 [Compound 8d, N^7-(3-Chloro-4-fluorophenyl)-N^2-(4-methylbenzyl)-5-methyl-[1,2,4]triazolo [1,5-a]pyrimidine-2,7-diamine]	178 to 180						800 ± 260	300 ± 60	190 ± 60	290 ± 60	220 ± 40	fold reduction in activity vs 7p ([1]; all cell lines): 1.5–3 fold
COc1cc(Nc2cc(C)nc3nc(-c4ccc(Cl)cc4)nn23)cc(OC)c1OC [Compound 7b, 2-(4-Chlorophenyl)-5-methyl-N-(3,4,5-trimethoxyphenyl)-[1,2,4]triazolo [1,5-a]pyrimidin-7-amine]	260	> 10000	> 10000	5790 ± 420	> 10000	> 10000						IC50 [1, 3]: < 2000 nM
COc1cc(Nc2cc(C)nc3nc(NCc4ccc(F)cc4)nn23)cc(OC)c1OC [Compound 7l, N^2-(4-Fluorobenzyl)-5-methyl-N^7-(3,4,5-trimethoxyphenyl)-[1,2,4]triazolo [1,5-a]pyrimidine-2,7-diamine]	156 to 158	61 ± 9	5890 ± 480	1860 ± 130	4680 ± 480	1140 ± 90						fold less active than 7e ([1]; in four lines): 2-6 fold; fold more potent than 7e (MDA-MB-231; MDA-MB-231 cells): 12 fold
Cc1cc(Nc2cccc(C(F)(F)F)c2)n2nc(NCc3ccc4c(c3)OCO4)nc2n1 [Compound 8o, N^2-(Benzo[d][1,3]dioxol-5-ylmethyl)-N^7-(3-trifluoromethylphenyl)-5-methyl-[1,2,4]triazolo [1,5-a]pyrimidine-2,7-diamine]	180 to 182						9820 ± 860	6260 ± 2020	7150 ± 600	7600 ± 60	7130 ± 870	
Cc1cc(Nc2cccc(Cl)c2)n2nc(NCc3ccc4c(c3)OCO4)nc2n1 [Compound 8j, N^2-(Benzo[d][1,3]dioxol-5-ylmethyl)-N^7-(3-chlorophenyl)-5-methyl-[1,2,4]triazolo [1,5-a]pyrimidine-2,7-diamine]	164 to 166						4820 ± 1910	2170 ± 10	960 ± 460	1660 ± 480	2660 ± 660	
COc1cc(Nc2cc(C)nc3nc(NCCc4ccc(Cl)cc4)nn23)cc(OC)c1OC [Compound 7ab, N^2-(4-Chlorophenethyl)-5-methyl-N^7-(3,4,5-trimethoxyphenyl)-[1,2,4]triazolo [1,5-a]pyrimidine-2,7-diamine]	196 to 198	> 10000	> 10000	5810 ± 480	5940 ± 500	> 10000						
COc1ccc(CCNc2nc3nc(C)cc(Nc4cc(OC)c(OC)c(OC)c4)n3n2)cc1 [Compound 7ac, N^2-(4-Methoxyphenethyl)-5-methyl-N^7-(3,4,5-trimethoxyphenyl)-[1,2,4]triazolo [1,5-a]pyrimidine-2,7-diamine]	214 to 216	1650 ± 190	8880 ± 880	5050 ± 630	9590 ± 1170	6880 ± 490						
Cc1cc(Nc2cccc(F)c2)n2nc(NCc3ccc4c(c3)OCO4)nc2n1 [Compound 8h, N^2-(Benzo[d][1,3]dioxol-5-ylmethyl)-N^7-(3-fluorophenyl)-5-methyl-[1,2,4]triazolo [1,5-a]pyrimidine-2,7-diamine]	174 to 176						9250 ± 120	2440 ± 130	5880 ± 2960	5980 ± 1580	9110 ± 930	
Cc1cc(Nc2cccc(Cl)c2)n2nc(NCc3ccc(Cl)cc3)nc2n1 [Compound 8b, N^7-(3-Chlorophenyl)-N^2-(4-chlorobenzyl)-5-methyl-[1,2,4]triazolo [1,5-a]pyrimidine-2,7-diamine]	158 to 160						1880 ± 80	1740 ± 130	810 ± 150	880 ± 500	1640 ± 220	
COc1cc(Nc2cc(C)nc3nc(NCc4cccc(F)c4)nn23)cc(OC)c1OC [Compound 7m, N^2-(3-Fluorobenzyl)-5-methyl-N^7-(3,4,5-trimethoxyphenyl)-[1,2,4]triazolo [1,5-a]pyrimidine-2,7-diamine]	176 to 178	77 ± 10	2180 ± 310	930 ± 20	5550 ± 480	1530 ± 160						
COc1cc(Nc2cc(C)nc3nc(Nc4ccccc4)nn23)cc(OC)c1OC [Compound 7d, 5-Methyl-N2-phenyl-N7-(3,4,5-trimethoxyphenyl)-[1,2,4]triazolo [1,5-a]pyrimidine-2,7-diamine]	241	1430 ± 140	2300 ± 120	520 ± 60	590 ± 10	820 ± 70						
Cc1ccc(CNc2nc3nc(C)cc(Nc4cccc(Cl)c4)n3n2)cc1 [Compound 8e, N^7-(3-Chlorophenyl)-N^2-(4-methylbenzyl)-5-methyl-[1,2,4]triazolo [1,5-a]pyrimidine-2,7-diamine]	166 to 168						2760 ± 550	1640 ± 370	680 ± 260	630 ± 140	830 ± 3	
